ChEMBL document CHEMBL4732213, “Discovery of novel ceramide analogs with favorable pharmacokinetic properties and combination with AKT inhibitor against colon cancer” (Eur J Med Chem, 2021)
The source made the active and inactive calls. No cut-off for these calls is given here.

Tests used:
T84 [1] = experiment: Antiproliferative activity against human T84 cells measured after 72 hrs by sulforhodamine B assay; assay type: functional, cell-based; conditions: T84, 72 h
COLO 205 = experiment: Antiproliferative activity against human COLO 205 cells measured after 72 hrs by sulforhodamine B assay; assay type: functional, cell-based; conditions: COLO 205, 72 h
COLO-678 [2] = experiment: Antiproliferative activity against human COLO 678 cells measured after 72 hrs by sulforhodamine B assay; assay type: functional, cell-based; conditions: COLO-678, 72 h
SW480 [3] = experiment: Antiproliferative activity against human SW480 cells measured after 72 hrs by sulforhodamine B assay; assay type: functional, cell-based; conditions: SW480, 72 h
HCT-116 = experiment: Antiproliferative activity against human HCT116 cells measured after 72 hrs by sulforhodamine B assay; assay type: functional, cell-based; conditions: HCT-116, 72 h
LoVo = experiment: Antiproliferative activity against human Lovo cells measured after 72 hrs by sulforhodamine B assay; assay type: functional, cell-based
Caco-2 = experiment: Antiproliferative activity against human Caco2 cells measured after 72 hrs by sulforhodamine B assay; assay type: functional, cell-based; conditions: Caco-2, 72 h
SW-620 = experiment: Antiproliferative activity against human SW620 cells measured after 72 hrs by sulforhodamine B assay; assay type: functional, cell-based; conditions: SW-620, 72 h
GES1 = experiment: Antiproliferative activity against human GES1 cells measured after 72 hrs by sulforhodamine B assay; assay type: cell-based; conditions: GES1, 72 h
[4] = Antiproliferative activity against human GM00637 cells measured after 72 hrs by sulforhodamine B assay; assay type: cell-based; conditions: GM00637, 72 h
[5] = Antiproliferative activity against human MINO cells measured after 72 hrs by CCK-8 assay; assay type: functional, cell-based
HT-29 [6] = experiment: Additive antiproliferative activity against human HT29 cells assessed as combination index at 10 uM after 72 hrs in presence of 2.5 uM AKT inhibitor MK2206 by Chou-Talalay method; assay type: functional
HT-29 [7] = experiment: Synergistic antiproliferative activity against human HT29 cells assessed as combination index at 20 uM after 72 hrs in presence of 5 uM AKT inhibitor MK2206 by Chou-Talalay method; assay type: functional
HT-29 [8] = experiment: Synergistic antiproliferative activity against human HT29 cells assessed as combination index at 30 uM after 72 hrs in presence of 7.5 uM AKT inhibitor MK2206 by Chou-Talalay method; assay type: functional
SW480 [9] = experiment: Additive antiproliferative activity against human SW480 cells assessed as combination index at 10 uM after 72 hrs in presence of 5 uM AKT inhibitor MK2206 by Chou-Talalay method; assay type: functional
COLO-678 [10] = experiment: Additive antiproliferative activity against human COLO-678 cells assessed as combination index at 10 uM after 72 hrs in presence of 2.5 uM AKT inhibitor MK2206 by Chou-Talalay method; assay type: functional
COLO-678 [11] = experiment: Synergistic antiproliferative activity against human COLO-678 cells assessed as combination index at 30 uM after 72 hrs in presence of 7.5 uM AKT inhibitor MK2206 by Chou-Talalay method; assay type: functional
T84 [12] = experiment: Additive antiproliferative activity against human T84 cells assessed as combination index at 10 uM after 72 hrs in presence of 5 uM AKT inhibitor MK2206 by Chou-Talalay method; assay type: functional
SW480 [13] = experiment: Synergistic antiproliferative activity against human SW480 cells assessed as combination index at 20 uM after 72 hrs in presence of 10 uM AKT inhibitor MK2206 by Chou-Talalay method; assay type: functional
SW480 [14] = experiment: Additive antiproliferative activity against human SW480 cells assessed as combination index at 40 uM after 72 hrs in presence of 20 uM AKT inhibitor MK2206 by Chou-Talalay method; assay type: functional
HT-29 [15] = experiment: Induction of apoptosis in human HT29 cells at 15 uM after 48 hrs in presence of 7.5 uM AKT inhibitor MK2206 by Annexin-V-FITC/PI staining based flow cytometric analysis; assay type: functional
HT-29 [16] = experiment: Induction of ROS generation in human HT29 cells at 20 uM after 16 hrs in presence of 10 uM AKT inhibitor MK2206 by flow cytometric analysis; assay type: functional, cell-based
HT-29 [17] = experiment: Induction of apoptosis in human HT29 cells assessed as inhibition of AKT phosphorylation at 20 uM after 48 hrs by Western blotting analysis; assay type: functional, cell-based
HT-29 [18] = experiment: Induction of apoptosis in human HT29 cells assessed as inhibition of AKT phosphorylation at 20 uM after 48 hrs in presence of 10 uM MK2206 by Western blotting analysis; assay type: functional, cell-based
HT-29 [19] = experiment: Induction of apoptosis in human HT29 cells assessed as increase in caspase-3 cleavage at 20 uM after 48 hrs in presence of 10 uM AKT inhibitor MK2206 by Western blot analysis; assay type: functional, cell-based
HT-29 [20] = experiment: Induction of apoptosis in human HT29 cells assessed as increase in caspase-3 activity at 20 uM after 24 hrs in presence of 10 uM AKT inhibitor MK2206 by Western blot analysis; assay type: functional, cell-based
HT-29 [21] = experiment: Induction of cell cycle arrest in human HT29 cells assessed as accumulation at G0/G1 phase at 20 uM after 24 hrs by PI staining based flow cytometry analysis; assay type: functional
HT-29 [22] = experiment: Downregulation of c-Myc protein expression level in human HT29 cells at 20 uM incubated for 24 hrs in presence of 10 uM AKT inhibitor MK2206 by Western blotting analysis; assay type: functional, cell-based
HT-29 [23] = experiment: Downregulation of c-Myc protein expression level in human HT29 cells at 20 uM incubated for 24 hrs by Western blotting analysis; assay type: functional, cell-based
HT-29 [24] = experiment: Upregulation of p21 protein expression in human HT29 cells at 20 uM incubated for 24 hrs by Western blotting analysis; assay type: functional, cell-based
HT-29 [25] = experiment: Down regulation of p-RB expression in human HT29 cells at 20 uM incubated for 24 hrs in presence of 10 uM AKT inhibitor MK2206 by Western blotting analysis; assay type: functional, cell-based
HT-29 [26] = experiment: Down regulation of p-RB expression in human HT29 cells at 20 uM incubated for 24 hrs by Western blotting analysis; assay type: functional, cell-based
HT-29 [27] = experiment: Down regulation of CDK6 expression in human HT29 cells at 20 uM incubated for 24 hrs in presence of 10 uM AKT inhibitor MK2206 by Western blotting analysis; assay type: functional, cell-based
[28] = Tmax in BALB/c mouse at 50 mg/kg, ip; assay type: ADME, organism-based; conditions: in vivo
[29] = Cmax in BALB/c mouse at 50 mg/kg, ip; assay type: ADME, organism-based; design: route intraperitoneal, dose 50 mg/kg; conditions: in vivo
[30] = AUC(0 to infinity) in BALB/c mouse at 50 mg/kg, ip; assay type: ADME, organism-based; design: time infinity, route intraperitoneal, dose 50 mg/kg; conditions: in vivo
[31] = Half life in BALB/c mouse at 50 mg/kg, ip; assay type: ADME, organism-based; conditions: in vivo
HT-29 [32] = experiment: Antitumor activity against human HT-29 cells xenografted in BALB/c nude mouse assessed as tumor growth inhibition at 100 mg/kg/day, ip measured every 3 days by electronic caliper method; assay type: functional; conditions: HT-29, ip, 72 h, time 3 day, read-out: TGI
[33] = Toxicity in BALB/c nude mouse xenografted with human HT-29 cells assessed as effect on body weight at 100 mg/kg/day, ip measured every 3 day by electronic caliper method; assay type: organism-based; conditions: in vivo, 72 h
[34] = Toxicity in BALB/c nude mouse xenografted with human HT-29 cells assessed as effect on body weight at 100 mg/kg/day, ip measured every 3 day in presence of 50 mg/kg AKT inhibitor MK2206 by electronic caliper method; assay type: organism-based; conditions: in vivo, 72 h

IC50 (COLO 205): 18.3 µM | IC50 (COLO-678 [2]): 20.7 µM | IC50 (SW480 [3]): 22.7 µM | IC50 (HCT-116): 25.8 µM | IC50 (LoVo): 26.4 µM | IC50 (Caco-2): 28 µM | IC50 (SW-620): 29.6 µM | Tmax [28]: 0.75 h | Cmax [29]: 6030 ng/mL | AUC(0-inf) [30]: 15700 ng·h/mL | half-life [31]: 3.3 h
Structure (SMILES): CCCCCCCOc1ccc(CCC(CO)(CO)NC(C)=O)c2ccccc12
IC50 (T84 [1]): 14.9 µM | IC50 (GES1): 41.8 µM | IC50 [4]: 47.9 µM | IC50 [5]: 13.3 µM | CI (HT-29 [6]): 1.05 | CI (HT-29 [7]): 0.77 | CI (HT-29 [8]): 0.53 | CI (SW480 [9]): 0.9 | CI (COLO-678 [10]): 0.87 | CI (COLO-678 [11]): 0.43 | CI (T84 [12]): 1.01 | CI (SW480 [13]): 0.62 | CI (SW480 [14]): 0.97 | Activity (HT-29 [15]): 40% | Activity (HT-29 [16]): Active | Activity (HT-29 [17]): Active | Activity (HT-29 [18]): inactive | Activity (HT-29 [19]): Active | Activity (HT-29 [20]): Active | Activity (HT-29 [21]): inactive | Activity (HT-29 [22]): Active | Activity (HT-29 [23]): inactive | Activity (HT-29 [24]): inactive | Activity (HT-29 [25]): Active | Activity (HT-29 [26]): inactive | Activity (HT-29 [27]): Active | inhibition in vivo at 100 mg/kg/day (HT-29 [32]): 25.4% | Activity [33]: Non-Toxic | Activity [34]: Non-Toxic
